These are literature values, as cited in patent US20100249408A1, “USE OF NOVEL COMPOUND HAVING AFFINITY FOR AMYLOID, AND PROCESS FOR PRODUCTION OF THE SAME” (NIHON MEDI-PHYSICS CO., LTD., priority 2007, published 2010).

For the data set the following is noted: [11C]-labeled, rats; cited from earlier work.

Structures are written as SMILES.

Consider `CNc1ccc(/C=C/c2ccc(O)cc2)cc1` [SB-13, (E)-4-methylamino-4′-hydroxystilbene], for which the “Clearance from normal tissues” value is “it cannot be said that the clearance is sufficiently fast”.
